# Measurements reported in article PMC8957950 (Frontiers in Pharmacology, 2022).
# Like-named read-outs stand apart in the source and are kept apart here.
# Columns and labels:
# Gram-positive bacteria = assay: Clinical and microbiological efficacy evaluation of TEI treatment; assay type: in vivo, human; details: for Eradication rate of Gram-positive bacteria: eradication or presumed eradication
# Description: According to the guiding principles of Clinical Trial Technology of antibacterial agents (2014 edition) ([Writing Group of Guidance for Clinical Trials of Antibacterial Drugs, 2014]), the judgment on efficacy evaluation includes clinical efficacy and microbiological efficacy. Clinical efficacy was evaluated after 7–14 days of medication. Clinical efficacy was evaluated in terms of clinical cure and clinical failure. Clinical cure is defined as the complete resolution or significant improvement of pretreatment infection signs and symptoms such that no additional antimicrobial therapy is needed. Clinical failure is defined as no apparent response or an incomplete response that needs additional antibiotic therapy for infections. The microbiological efficacy was evaluated as eradication, presumed eradication, no eradication, and presumed no eradication. Microbiological success was defined as eradication or presumed eradication of Gram-positive bacteria ([Writing Group of Guidance for Clinical Trials of Anti-bacterial Drugs, 2014]). The primary outcomes were clinical cure and microbiological success rates at the end of treatment (EOT).
# Univariate and multivariate logistic regression analyses were used to select the covariables of the regression model. We established the regression model for predicting the factors influencing the eradication of Gram-positive bacteria. In univariate analysis, the χ^2 test or the Fisher exact test was used to compare the categorical variables. Continuous variables were compared by using the Mann–Whitney U test. Covariates with p values <0.1 were included in the multivariate logistic regression analysis (backward procedure, based on the p-value of the predictor removed) ([Hammitt et al., 2019]). Multivariate logistic regression analysis was used to screen for independent risk factors. SPSS software automatically screened out the independent variables when the optimal balance was reached between the fitting degrees of the prediction model.
# Independent risk factor variables were used to establish regression equations and calculate prediction probabilities. The receiver operating characteristic (ROC) curves of multivariate factors were drawn; the area under the curve (AUC), cutoff point, Youden index, sensitivity, and specificity were used to evaluate their predictive value for predicting the factors influencing the eradication of Gram-positive bacteria.
# [1] = Source text: Patients’ data were obtained from the inpatients’ medical database.
substance,measurement,setting,value
Teicoplanin,Cases of presumed eradication of Gram-positive bacteria,Gram-positive bacteria; CRRT group,4 cases
same,Clinical cure rate,Gram-positive bacteria; CRRT group (n = 40),67.5%
same,Eradication rate of Gram-positive bacteria,Gram-positive bacteria; CRRT group,77.5%
same,Clinical cure rate,Gram-positive bacteria; non-CRRT group (n = 66),72.7%
same,Eradication rate of Gram-positive bacteria,Gram-positive bacteria; non-CRRT group,81.8%
same,28-day hospital mortality rate,[1]; CRRT group,22.5%
same,28-day hospital mortality rate,[1]; non-CRRT group,15.2%
